Assay results reported in patent EP3594336A1, “TREATMENT OF DOWN SYNDROME” (Université de Strasbourg, priority 2018, dated 2020).

What was measured:
[1] = test system: yeast cells overexpressing Cys4; assay: Drug screening in yeast: suppression of methionine auxotrophy (halo of restored growth around filter); assay type: cell-based, Saccharomyces cerevisiae; conditions: same plate assay; high concentrations = close to the filter
Protocol: As an example, for the drug screening, yeast cells transformed with p424-GPD and p426-GPD plasmids containing yeast CBS (CYS4) coding sequence were grown in uracil- and tryptophan-free minimal liquid medium (SD-Ura/Trp) overnight at 29°C. The following day, cells were diluted to OD600∼0.2 in fresh medium and grown for 4 hours to reach exponential phase. Then three hundred and fifty microliters of exponentially growing yeast cells overexpressing CYS4, adjusted to an OD600 of 0.5, were spread homogeneously with sterile glass beads (a mix of ∼1.5 and 3 mm diameter) on a square Petri dish (12 cm × 12cm) containing uracil-, tryptophan- and methionine-free minimal agar-based solid medium (SD-UrarTrp/Met). In addition, to get a degree of methionine auxotrophy sufficient to allow an efficient screening, the screening medium was supplemented with serine (2% (w/v)), which is one of CYS4/CBS substrates. Sterile filters (Thermo Fisher similar to those used for antibiograms) were placed on the agar surface, and 2 µl of individual compound from the various chemical libraries were applied to each filter. […]
According to the present invention, it was decided to create a yeast model in which the phenotypical consequences of CBS overexpression may be easily and conveniently monitored in order to get a potential in cellulo high throughput drug screening procedure. […]

[2] = test system: DYRK1A; conditions: treatment with EGCG, as reported previously; cited from earlier work

Row | Compound | toxicity on CYS4-overexpressing cells [1] | cognitive aspects found altered in people with DS [2]
1 | CCN(CC)C(=S)SSC(=S)N(CC)CC [DSF, Disulfiram] | toxic at high concentrations | 
2 | O=C(O[C@@H]1Cc2c(O)cc(O)cc2O[C@@H]1c1cc(O)c(O)c(O)c1)c1cc(O)c(O)c(O)c1 [epigallocatechin-3-gallate] |  | can restore some cognitive aspects found altered in people with DS but the gain was limited
